One compound from patent US10189795B2, “Aryl amine substituted quinoxaline used as anticancer drugs” (priority 2014, dated 2019) can be followed below.

As usually defined, the viability is a read-out of living cells in per cent, often relative to untreated cells. For orientation: IC50 means the concentration needed to halve the response being measured.

One data set has as its system NCI-H226. The data set is described as follows: cell viability of NCI-H226 cells, 1 and 10 uM. The conditions noted are these: Homo sapiens. Format: cell-based.
Another data set relates to SW900. As to the kind of experiment: cell viability of SW900 cells, 1 and 10 uM. The conditions noted are these: Homo sapiens. Format: cell-based.
A further data set is described as follows: BA (%), Table 5. The note with it: in vivo.
A further data set deals with T1, SET-PP2Ac binding (Homo sapiens, UniProt Q01105).
T1 construct: His; purchased Genway (SET-His); Abnova (PP2Ac-GST) GWB-ATG319; H00005515
As to the kind of experiment: disruption of SET-PP2Ac binding (surface plasmon resonance, co-IP). Here is the method:
Binding affinities of full-length SET and truncated SET to PP2Ac and the effect of the erlotinib derivatives of the present invention on disrupting SET and PP2Ac were analyzed. PP2Ac-GST recombinant protein was bound in the CMS chip pre-coated with GST-capture antibodies. Sensorgrams were generated by injecting several concentrations of the erlotinib derivatives of the present invention mixed with fixed-concentration of SET recombinant protein, or the mixture of different concentration of truncated SET proteins in a fixed-dose EMQA. PP2Ac-GST recombinant protein used for this experiment was purchased from Abnova (H00005515) and SET-His recombinant protein was obtained from Genway (GWB-ATG319).
EMQA reactivates PP2A by disrupting the binding of SET-PP2Ac. To validate the role of SET, the present invention generated Hep3B cells with ectopic expression of myc-tagged SET by transient transfection. […] With a fixed amount of PP2Ac coated on the CM chip, the present invention tested the effects of a fixed-dose of EMQA on interfering different proportions of full-length and truncated forms of SET proteins in SPR system. […] To validate the findings of this ex vivo system, the present invention generated cells with ectopic overexpression of these two truncated forms of Flag-tagged SET proteins by transient transfections.

The next data set relates to PP2A. The data set is described as follows: PP2A phosphatase activity (malachite green-phosphate assay in cell lysate). Type of data set: cell-based. Here is the method:
The protein phosphatase activity in each cell lysate was determined by measuring the generation of free phosphate from threonine phosphopeptide using the malachite green-phosphate complex assay as described by the manufacturer (Upstate Biotechnology, Lake Placid, N.Y., USA). In brief, HCC cell lysates were first prepared in a low-detergent lysis buffer. […] After incubation for 10 min at 30° C., the malachite dye was added and free phosphate was measured by optical density at 650 nm. In order to avoid variation resulting from differences in the amount of immunoprecipitation protein between samples, the phosphatase activities were normalized to the amounts of PP2A immunoprecipitated, which were detected and quantified by immunoblot analysis for each treatment group.

The next data set deals with HA22T. As to the kind of experiment: MTT cell viability, HA22T. Format: cell-based. The note with it: Homo sapiens, 48 h. The protocol: (§1) The present invention compared the antitumor activities of an erlotinib derivative of the present invention, TD-52, and erlotinib on HCC cells. The present invention used MTT assay to evaluate cell viability after exposure to TD-52 or erlotinib for 48 h. […] To further evaluate the cell apoptosis induced by the treatments, all four cell lines were treated with TD-52 and erlotinib at the indicated concentration for 24 h and the percentages of sub-G1 cells were determined by flow cytometry (FIG. 1B).

In a further data set the test system is Sk-Hep1. As to the kind of experiment: MTT cell viability, Sk-Hep1. The note with it: Homo sapiens, 48 h. Type of data set: cell-based. Here is the method:
The Sk-Hep1, PLC/PRF/5 (PLC) and Hep3B cell lines were obtained from American Type Culture Collection (ATCC; Manassas, Va., USA). The Huh-7 HCC cell line was obtained from the Health Science Research Resources Bank (HSRRB; Osaka, Japan; JCRB0403). Cells were maintained in DMEM supplemented with 10% FBS in a 37° C. humidified incubator in an atmosphere of 5% CO^2 in air. Other cell lines, including non-small cell lung cancer cells e.g. H358, H460 and A549 and human squamous cell carcinoma cells e.g. NCI-1703, H2170, H520, SW900 and NCI—H226 all obtained from American Type Culture Collection (Manassas, Va.) were also provided for the assays describes below.
as §1

The test system of data set [1] is HCC cells (HA22T, Hep3B, PLC5, Sk-Hep1). As to the kind of experiment: annexin-V/PI double-staining assay of apoptotic and necrotic cell death. Format: cell-based. The note with it: 2 μM or higher doses, 48 h, four HCC cell lines. The protocol:
The numbers of apoptotic cells after treatment with DMSO, sorafenib or the erlotinib derivatives of the present invention were assessed by flow cytometry (sub-G1). Annexin-V/propidium iodidie (PI) double-staining assay was used to determine numbers of both apoptotic and necrotic cells. For above tow assays, HCC cells were harvested after the erlotinib derivatives of the present invention treatment and incubated with PI alone for sub-G1 assay and in combination with annexin-V—FITC. Analysis of cell composition was performed by flow cytometry. The erlotinib derivatives of the present invention-induced apoptotic cell death was assessed by western blot analysis of activated caspases and cleaved PARP, and cell death enzyme-linked immunosorbent assay (ELISA) for cytoplasmic histone-associated DNA fragments (Roche, Indianapolis, Ind., USA). The effect of co-treatment with the erlotinib derivatives of the present invention and z-VAD-fmk, the caspase inhibitor, were assessed by western blot analysis and flow cytometry.
To better characterize the antitumor properties of TD-52, annexin-V/propidium iodide (PI) double-staining assay, western blot analysis, cell cycle analysis and DNA fragmentation assay were performed (FIGS. 1C-1E). At dose increase, the proportion of apoptosis and necrosis of cancer cell ware analyzed by annexin-V—FITC/PI double-staining assay. […]

T1 sequence (Q01105 1-277 isoform Q01105-2): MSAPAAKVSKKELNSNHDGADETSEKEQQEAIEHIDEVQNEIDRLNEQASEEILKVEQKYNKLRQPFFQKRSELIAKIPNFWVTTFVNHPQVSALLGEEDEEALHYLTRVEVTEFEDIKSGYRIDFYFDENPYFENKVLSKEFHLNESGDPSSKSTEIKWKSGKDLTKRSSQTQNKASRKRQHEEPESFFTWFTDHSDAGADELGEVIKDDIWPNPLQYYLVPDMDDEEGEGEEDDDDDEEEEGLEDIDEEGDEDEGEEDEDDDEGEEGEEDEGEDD

In the case of `C#Cc1cccc(Nc2nc3ccccc3nc2Nc2cccc(C#C)c2)c1` [TD52, N^2,N^3-bis(3-ethynylphenyl)quinoxaline-2,3-diamine], the values for the viability at 1 µM with NCI-H226 (1 uM) and in the data set on SW900 (1 uM) were 79.5 ± 6.9% and 107 ± 13.1%, respectively. Moreover, the viability at 10 µM in the data set with NCI-H226 (10 uM) was 5.3 ± 0.1%; in the data set on SW900 (10 uM), 77.9 ± 11.3%. The “BA (%)” value in “BA (%), Table 5” is given as 87%. Further, at SET-PP2Ac binding, the “minimal concentration to disrupt SET-PP2Ac binding” value lay within 100 to 200 nM. Moreover, the “minimal concentration for PP2A activation” value in the data set on PP2A was 100 to 200 nM. Further, in the data set on PP2A (1 μL (printed) TD-52, 24 hr), the “PP2A activity in HCC cells” value was “enhanced”. The results for the IC50 with HA22T and in the data set with Sk-Hep1 were 900 nM and 1200 nM, respectively. Further, in data set [1], the “extents of cancer cell death, included apoptotic and necrotic death” value is on record as not below 50%.
